This is an account of results in ChEMBL document CHEMBL5113521, “Discovery of a Novel Oral Proteasome Inhibitor to Block NLRP3 Inflammasome Activation with Anti-inflammation Activity” (J Med Chem, 2022).

Data set [1] in a line: Half life in Sprague-Dawley rat at 1 mg/kg, po measured upto 24 hrs by liquid chromatography tandem mass spectrometry. Type of data set: ADME, organism-based. The settings on record: in vivo.
Data set [2] can be described thus: Cytotoxicity against HEK293 cells incubated for 24 hrs. The settings on record: human. Type of data set: toxicity, cell-based.
For data set [3], the system named is Mus musculus. The experiment in a line: Anti-colitis activity against DSS-induced ulcerative colitis C57BL/6J mouse assessed as reduction in colon length decrease at 0.125 to 0.5 mg/kg, po administered every 72 hrs for 10 days. Type of data set: functional, organism-based. Particulars: dose 0.125-0.5 mg/kg, time 10.0 day.
Data set [4] concerns the target T1, Apoptosis-associated speck-like protein containing a CARD (Mus musculus) (UniProt Q9EPB4).
T1 sequence (whole entry): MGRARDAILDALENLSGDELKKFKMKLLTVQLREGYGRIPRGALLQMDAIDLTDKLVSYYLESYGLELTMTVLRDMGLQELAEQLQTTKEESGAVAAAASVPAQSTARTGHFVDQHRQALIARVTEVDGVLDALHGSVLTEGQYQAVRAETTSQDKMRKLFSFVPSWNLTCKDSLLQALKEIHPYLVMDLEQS
Kind of data set: Inhibition of ASC oligomerization in LPS stimulated mouse J774A.1 cells preincubated for 1 hr followed by nigericin stimulation by immunoblot analysis. Particulars: J774.A1, dose 15-60 nM, DDE = dose-dependent effect. Type of data set: cell-based.

In data set [5] the target is NACHT, LRR and PYD domains-containing protein 3 (Mus musculus) (UniProt Q8R4B8). The experiment in a line: Inhibition of NLRP3 inflammasome activation in LPS-primed mouse J774.A1 cells assessed as inhibition of caspase-1 p20 subunit release in supernatant preincubated for 1 hr followed by nigericin stimulation measured after 1 hr by Western blot analysis. Type of data set: cell-based. The settings on record: dose 7.5-60 nM, time 2.0 hrs, DDE = dose-dependent effect.
NACHT, LRR and PYD domains-containing protein 3 (Mus musculus), sequence (Q8R4B8 whole entry, the tested form may be a part): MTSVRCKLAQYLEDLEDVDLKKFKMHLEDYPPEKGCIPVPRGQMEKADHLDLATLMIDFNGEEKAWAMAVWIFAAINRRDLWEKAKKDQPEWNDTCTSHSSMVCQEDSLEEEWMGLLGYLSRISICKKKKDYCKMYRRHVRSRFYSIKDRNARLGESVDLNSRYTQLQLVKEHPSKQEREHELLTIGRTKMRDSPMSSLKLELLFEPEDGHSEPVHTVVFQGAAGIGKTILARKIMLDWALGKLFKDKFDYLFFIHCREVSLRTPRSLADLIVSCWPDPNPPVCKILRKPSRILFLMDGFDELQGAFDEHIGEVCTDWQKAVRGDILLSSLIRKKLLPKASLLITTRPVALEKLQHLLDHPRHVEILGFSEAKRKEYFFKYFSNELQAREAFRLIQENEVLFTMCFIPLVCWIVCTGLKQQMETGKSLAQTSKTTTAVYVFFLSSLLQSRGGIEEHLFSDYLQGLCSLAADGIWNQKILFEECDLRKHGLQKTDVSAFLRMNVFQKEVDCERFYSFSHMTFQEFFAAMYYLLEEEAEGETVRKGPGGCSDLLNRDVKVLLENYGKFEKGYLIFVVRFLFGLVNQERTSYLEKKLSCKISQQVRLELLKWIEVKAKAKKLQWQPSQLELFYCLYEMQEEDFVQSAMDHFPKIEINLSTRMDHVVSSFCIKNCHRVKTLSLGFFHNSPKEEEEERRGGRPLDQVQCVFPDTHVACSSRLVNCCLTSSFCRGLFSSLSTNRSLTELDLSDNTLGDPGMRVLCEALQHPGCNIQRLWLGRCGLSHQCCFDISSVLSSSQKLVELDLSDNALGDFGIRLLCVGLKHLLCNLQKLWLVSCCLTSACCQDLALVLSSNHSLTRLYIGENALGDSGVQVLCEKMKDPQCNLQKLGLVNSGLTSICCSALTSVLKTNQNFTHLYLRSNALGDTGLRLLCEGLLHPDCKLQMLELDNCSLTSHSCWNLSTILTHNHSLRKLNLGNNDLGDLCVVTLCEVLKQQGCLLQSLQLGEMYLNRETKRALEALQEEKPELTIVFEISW

Data set [6] has as its system Mus musculus. Kind of data set: Protection against DSS-induced acute colitis in C57BL/6 mouse model assessed as improvement in goblet cell depletion at 0.125 to 0.5 mg/kg, po administered for 10 days by Hematoxylin and eosin staining based analysis. The format is functional, organism-based. The settings on record: dose 0.125-0.5 mg/kg, time 10.0 day.
Data set [7] deals with J774.A1. The experiment in a line: Inhibition of NF-kappaB in LPS treated mouse J774.A1 cells assessed as reduction in phosphorylated p65 level at 60 nM incubated for 1 hr followed by LPS stimulation measured after 5 hrs by Western blot analysis. The format is cell-based. The settings on record: time 6.0 hrs. (In general: In western blotting, separated proteins are transferred to a membrane and probed.)

The target of data set [8] is T2, Interferon-inducible protein AIM2 (Mus musculus) (UniProt Q91VJ1).
T2 sequence (whole entry): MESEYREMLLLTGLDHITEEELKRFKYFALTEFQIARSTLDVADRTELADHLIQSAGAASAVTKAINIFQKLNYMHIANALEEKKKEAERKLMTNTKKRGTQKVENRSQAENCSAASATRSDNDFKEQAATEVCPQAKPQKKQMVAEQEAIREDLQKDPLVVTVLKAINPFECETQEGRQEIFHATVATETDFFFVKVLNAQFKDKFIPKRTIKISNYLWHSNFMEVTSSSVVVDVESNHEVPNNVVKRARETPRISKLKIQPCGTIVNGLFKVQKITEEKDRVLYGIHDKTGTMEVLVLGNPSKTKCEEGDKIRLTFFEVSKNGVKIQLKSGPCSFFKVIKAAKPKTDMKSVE
The experiment in a line: Inhibition of AIM2 inflammasome activation in LPS-primed mouse BMDM cells assessed as reduction in IL-1beta secretion at 7.5 to 60 nM preincubated for 1 hr followed by poly (dA/dT) stimulation by ELISA. The format is cell-based. Particulars: dose 7.5-60 nM. A general note: ELISA stands for enzyme-linked immunosorbent assay.

Data set [9] is described as follows: Half life in Sprague-Dawley rat at 0.5 mg/kg, iv measured upto 24 hrs by liquid chromatography tandem mass spectrometry. The format is ADME, organism-based. The settings on record: in vivo.
A short description of data set [10]: Tmax in Sprague-Dawley rat at 1 mg/kg, po measured upto 24 hrs by liquid chromatography tandem mass spectrometry. Particulars: in vivo. The format is ADME, organism-based.
Data set [11] concerns Mus musculus. The experiment in a line: Anti-colitis activity against DSS-induced C57BL/6 mouse model assessed as suppression of DSS induced fecal occult blood at 0.125 to 0.5 mg/kg, po administered every 72 hrs for 10 days. Type of data set: functional, organism-based. The settings on record: dose 0.125-0.5 mg/kg, time 10.0 day.
Data set [12] has as its target NLR family CARD domain-containing protein 4 (Mus musculus) (UniProt Q3UP24). The experiment in a line: Inhibition of NLRC4 inflammasome activation in LPS-primed mouse BMDM cells assessed as reduction in IL-1beta secretion at 7.5 to 60 nM preincubated for 1 hr followed by FLA-ST Ultrapure stimulation by ELISA. Type of data set: cell-based. The settings on record: dose 7.5-60 nM.

Data set [13] has the same target. The experiment in a line: Inhibition of NLRC4 inflammasome activation in LPS-primed mouse BMDM cells assessed as reduction in IL-1beta secretion at 7.5 to 60 nM preincubated for 1 hr followed by poly (dA/dT) stimulation by ELISA. The format is cell-based. Particulars: dose 7.5-60 nM.
Data set [14] relates to J774.A1. The experiment in a line: Inhibition of NF-kappaB in LPS treated mouse J774.A1 cells assessed as reduction in NLRP3 level at 60 nM incubated for 1 hr followed by LPS stimulation measured after 5 hrs by Western blot analysis. The settings on record: time 6.0 hrs. Type of data set: cell-based.
Data set [15] concerns the target NACHT, LRR and PYD domains-containing protein 3 (Mus musculus) (UniProt Q8R4B8). The experiment in a line: Inhibition of NLRP3 inflammasome activation in LPS-primed mouse J774.A1 cells assessed as inhibition of release of IL-1 beta preincubated for 1 hr followed by nigericin stimulation and measured after 1 hr by ELISA. The settings on record: dose 7.5-60 nM, time 2.0 hrs, DDE = dose-dependent effect. Type of data set: cell-based.

Data set [16] has the same target. The experiment in a line: Inhibition of NLRP3 inflammasome activation in LPS-primed mouse J774.A1 cells assessed as reduction in IL-1beta secretion preincubated for 1 hr followed by nigericin stimulation and measured after 1 hr by ELISA. Type of data set: cell-based. Particulars: time 2.0 hrs, DDE = dose-dependent effect.
The target is the same in data set [17]. Kind of data set: Inhibition of NLRP3 inflammasome activation in LPS-primed mouse BMDM cells assessed as reduction in IL-1 beta release preincubated for 1 hr followed by nigericin stimulation and measured after 1 hr by ELISA. Type of data set: cell-based. The settings on record: dose 7.5-60 nM, time 2.0 hrs, DDE = dose-dependent effect.
Data set [18] has as its system Mus musculus. The experiment in a line: Protection against DSS-induced acute colitis in C57BL/6 mouse model assessed as improvement in loss of crypt architecture at 0.125 to 0.5 mg/kg, po administered for 10 days by Hematoxylin and eosin staining based analysis. Type of data set: functional, organism-based. Particulars: dose 0.125-0.5 mg/kg, time 10.0 day.
The species entered for data set [19] is Mus musculus. The experiment in a line: Protection against DSS-induced C57BL/6 mouse ulcerative colitis model assessed as reduction in IL-1 beta in colon homogenate by ELISA. The format is functional, organism-based. The settings on record: dose 0.125-0.5 mg/kg, route po, DDE = dose-dependent effect.

The source made the active and inactive calls. The rule behind the calls is not given here.

NLR family CARD domain-containing protein 4 (Mus musculus), sequence (Q3UP24 whole entry, the tested form may be a part): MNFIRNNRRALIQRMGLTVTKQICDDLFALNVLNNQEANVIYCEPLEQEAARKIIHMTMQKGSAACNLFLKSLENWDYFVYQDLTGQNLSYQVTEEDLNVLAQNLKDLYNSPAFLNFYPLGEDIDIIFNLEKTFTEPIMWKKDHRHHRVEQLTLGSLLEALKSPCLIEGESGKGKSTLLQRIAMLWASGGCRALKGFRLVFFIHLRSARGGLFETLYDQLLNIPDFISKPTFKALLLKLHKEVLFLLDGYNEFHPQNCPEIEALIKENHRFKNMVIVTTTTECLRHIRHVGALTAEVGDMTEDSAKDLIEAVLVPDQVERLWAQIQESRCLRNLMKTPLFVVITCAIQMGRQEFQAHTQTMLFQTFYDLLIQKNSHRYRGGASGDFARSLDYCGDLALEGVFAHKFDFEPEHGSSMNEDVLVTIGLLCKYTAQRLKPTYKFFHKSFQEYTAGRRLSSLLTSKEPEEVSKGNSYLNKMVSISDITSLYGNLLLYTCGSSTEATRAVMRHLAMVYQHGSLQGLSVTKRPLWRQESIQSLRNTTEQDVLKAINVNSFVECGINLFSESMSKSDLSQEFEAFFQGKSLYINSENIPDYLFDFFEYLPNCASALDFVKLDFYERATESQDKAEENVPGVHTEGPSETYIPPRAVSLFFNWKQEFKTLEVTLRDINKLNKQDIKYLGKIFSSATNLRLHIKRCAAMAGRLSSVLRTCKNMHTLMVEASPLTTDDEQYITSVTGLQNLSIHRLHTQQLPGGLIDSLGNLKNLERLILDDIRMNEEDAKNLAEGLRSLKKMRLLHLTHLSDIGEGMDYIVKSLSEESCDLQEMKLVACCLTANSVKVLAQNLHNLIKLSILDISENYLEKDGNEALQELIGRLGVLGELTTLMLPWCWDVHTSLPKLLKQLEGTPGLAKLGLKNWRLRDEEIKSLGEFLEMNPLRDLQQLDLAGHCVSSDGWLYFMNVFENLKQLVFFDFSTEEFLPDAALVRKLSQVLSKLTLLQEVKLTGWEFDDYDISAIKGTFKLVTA

Turning to `CC(C)C[C@H](NC(=O)[C@H](Cc1ccccc1)NC(=O)c1c(F)cccc1F)B(O)O`, the results for the t1/2 in data set [1] and in [9] were 8.36 h and 4.73 h, respectively. Also, the IC50 at 24 h in [2] was less than 79.4 nM. The outcome in the data set on Mus musculus [3], in the data set on Mus musculus [6], in the data set with Mus musculus [11] and with Mus musculus [18] was Active. In addition, the inhibition entry in data set [4], in [5], in data set [15], in data set [16] and in data set [17] was “Dde” each time. Moreover, the inhibition result (in the data set with J774.A1 [7]; in data set [8]; in [12]; in data set [13]; with J774.A1 [14]) was “Active” throughout. Moreover, the Tmax in [10] is 0.25 h. In addition, in the data set filed under Mus musculus [19], the Activity result is “Dde”.

Usually IC50 stands for the concentration at which inhibition is half-maximal. A higher IC50 goes with lower potency. Usually Tmax stands for the time at which the peak concentration occurs.
